Laboratory results from ChEMBL document CHEMBL1154936, “Synthesis, SAR and intramolecular hydrogen bonding pattern of 1,3,5-trisubstituted 4,5-dihydropyrazoles as potent cannabinoid CB(1) receptor antagonists” (Bioorg Med Chem Lett, 2010).
pKi: −log10 of the molar value.

What follows are compounds tested against T1, Cannabinoid receptor 1 (Homo sapiens, UniProt P21554) (assay: Displacement of [3H]CP-55940 from human cannabinoid CB1 receptor expressed in CHO cells). Details: not given.
Format: cell-based

T1 sequence (P21554 whole entry): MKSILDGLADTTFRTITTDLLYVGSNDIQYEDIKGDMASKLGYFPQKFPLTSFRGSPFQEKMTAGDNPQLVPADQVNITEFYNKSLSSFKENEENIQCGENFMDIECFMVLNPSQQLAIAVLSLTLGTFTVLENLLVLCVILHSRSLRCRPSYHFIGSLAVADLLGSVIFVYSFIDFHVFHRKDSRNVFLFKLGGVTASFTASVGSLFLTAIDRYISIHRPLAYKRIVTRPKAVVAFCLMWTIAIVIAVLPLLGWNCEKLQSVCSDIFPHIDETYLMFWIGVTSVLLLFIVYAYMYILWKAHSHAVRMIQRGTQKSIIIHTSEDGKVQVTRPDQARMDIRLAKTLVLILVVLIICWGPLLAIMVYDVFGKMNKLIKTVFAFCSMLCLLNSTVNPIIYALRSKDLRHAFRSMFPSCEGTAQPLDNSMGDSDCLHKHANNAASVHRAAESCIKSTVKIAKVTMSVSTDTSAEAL

Structure (SMILES) | pKi
CN/C(=N\S(=O)(=O)N1CCC(F)(F)CC1)C1=NN(c2ccc(Cl)cc2)[C@H](c2ccccc2)C1 | 6.55
CNC(=NS(=O)(=O)N1CCC(F)CC1)N1CC(c2ccccc2)C(c2ccc(Cl)cc2)=N1 (stereo not given) | 8.12
CN/C(=N\S(=O)(=O)c1ccc(F)cc1)C1=NN(c2ccc(Cl)cc2)C(c2ccccc2)C1 (stereo not given) | 7.66
CNC(=NS(=O)(=O)N1CCC(C(F)(F)F)CC1)C1=NN(c2ccc(Cl)cc2)[C@@H](c2ccccc2)C1 | 8.70
CNC(=NS(=O)(=O)N1CCC(C(F)(F)F)CC1)C1=NN(c2ccc(Cl)cc2)[C@H](c2ccccc2)C1 | 7.24
CNC(=NS(=O)(=O)N1CCC(C(F)(F)F)CC1)N1C[C@H](c2ccccc2)C(c2ccc(Cl)cc2)=N1 | 8.33
CNC(=NS(=O)(=O)N1CCC(C(F)(F)F)CC1)N1C[C@@H](c2ccccc2)C(c2ccc(Cl)cc2)=N1 | 6.85
CNC(=NS(=O)(=O)N1CCC(F)(F)CC1)N1C[C@H](c2ccccc2)C(c2ccc(Cl)cc2)=N1 | 7.38
CNC(=NS(=O)(=O)N1CCC(F)(F)CC1)N1C[C@@H](c2ccccc2)C(c2ccc(Cl)cc2)=N1 | 6.33
CN/C(=N\S(=O)(=O)N1CCC(C(F)(F)F)CC1)N1CC(c2ccccc2)C(c2ccc(Cl)cc2)=N1 (stereo not given) | 7.84
CN/C(=N\S(=O)(=O)c1ccc(Cl)cc1)C1=NN(c2ccc(Cl)cc2)C(c2ccccc2)C1 (stereo not given) | 7.08
CN/C(=N\S(=O)(=O)c1cccc(Cl)c1)C1=NN(c2ccc(Cl)cc2Cl)C(c2ccccc2)C1 (stereo not given) | 7.28
CN/C(=N\S(=O)(=O)c1ccc(Cl)cc1)C1=NN(c2ccc(Cl)cc2Cl)C(c2ccccc2)C1 (stereo not given) | 7.43
CN/C(=N\S(=O)(=O)c1ccc(C(F)(F)F)cc1)C1=NN(c2ccc(Cl)cc2Cl)C(c2ccccc2)C1 (stereo not given) | 7.95
CNC(=NS(=O)(=O)N1CCCCC1)C1=NN(c2ccc(Cl)cc2)C(c2ccccc2)C1 (stereo not given) | 6.85
CN/C(=N\S(=O)(=O)N1CCC(F)CC1)C1=NN(c2ccc(Cl)cc2)C(c2ccccc2)C1 (stereo not given) | 7.26
CN/C(=N\S(=O)(=O)N1CCC(C(F)(F)F)CC1)C1=NN(c2ccc(Cl)cc2)C(c2ccccc2)C1 (stereo not given) | 8.12
CN=C(NS(=O)(=O)N1CCC(F)(F)CC1)C1=NN(c2ccc(Cl)cc2)C(c2ccccc2)C1 (stereo not given) | 7.41
CN/C(=N\S(=O)(=O)N1CCC(F)(F)CC1)C1=NN(c2ccc(Cl)cc2)[C@@H](c2ccccc2)C1 | 8.04

These compounds were tested against Cannabinoid receptor 2 (Homo sapiens, UniProt P34972) (assay: Displacement of [3H]CP-55940 from human cannabinoid CB2 receptor expressed in CHO cells). Details: not given.
Sequence of Cannabinoid receptor 2 (P34972 whole entry): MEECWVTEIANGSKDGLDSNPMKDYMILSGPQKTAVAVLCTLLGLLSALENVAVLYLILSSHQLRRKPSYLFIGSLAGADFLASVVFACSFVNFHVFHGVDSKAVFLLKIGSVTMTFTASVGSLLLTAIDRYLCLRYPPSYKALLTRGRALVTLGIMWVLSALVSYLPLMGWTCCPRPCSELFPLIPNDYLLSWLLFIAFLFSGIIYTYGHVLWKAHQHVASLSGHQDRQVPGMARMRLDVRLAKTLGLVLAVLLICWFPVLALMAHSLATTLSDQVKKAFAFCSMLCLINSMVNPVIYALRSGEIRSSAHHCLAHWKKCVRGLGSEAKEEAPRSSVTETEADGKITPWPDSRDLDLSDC
Format: cell-based

Structure (SMILES) | pKi
CN/C(=N\S(=O)(=O)N1CCC(F)(F)CC1)C1=NN(c2ccc(Cl)cc2)[C@H](c2ccccc2)C1 | < 6.00
CNC(=NS(=O)(=O)N1CCC(F)CC1)N1CC(c2ccccc2)C(c2ccc(Cl)cc2)=N1 (stereo not given) | < 6.00
CN/C(=N\S(=O)(=O)c1ccc(F)cc1)C1=NN(c2ccc(Cl)cc2)C(c2ccccc2)C1 (stereo not given) | < 6.00
CNC(=NS(=O)(=O)N1CCC(C(F)(F)F)CC1)C1=NN(c2ccc(Cl)cc2)[C@@H](c2ccccc2)C1 | 6.23
CNC(=NS(=O)(=O)N1CCC(C(F)(F)F)CC1)C1=NN(c2ccc(Cl)cc2)[C@H](c2ccccc2)C1 | < 6.00
CNC(=NS(=O)(=O)N1CCC(C(F)(F)F)CC1)N1C[C@H](c2ccccc2)C(c2ccc(Cl)cc2)=N1 | 6.52
CNC(=NS(=O)(=O)N1CCC(C(F)(F)F)CC1)N1C[C@@H](c2ccccc2)C(c2ccc(Cl)cc2)=N1 | < 6.00
CNC(=NS(=O)(=O)N1CCC(F)(F)CC1)N1C[C@H](c2ccccc2)C(c2ccc(Cl)cc2)=N1 | < 6.00
CNC(=NS(=O)(=O)N1CCC(F)(F)CC1)N1C[C@@H](c2ccccc2)C(c2ccc(Cl)cc2)=N1 | < 6.00
CN/C(=N\S(=O)(=O)N1CCC(C(F)(F)F)CC1)N1CC(c2ccccc2)C(c2ccc(Cl)cc2)=N1 (stereo not given) | < 6.00
CN/C(=N\S(=O)(=O)c1ccc(Cl)cc1)C1=NN(c2ccc(Cl)cc2)C(c2ccccc2)C1 (stereo not given) | < 6.00
CN/C(=N\S(=O)(=O)c1cccc(Cl)c1)C1=NN(c2ccc(Cl)cc2Cl)C(c2ccccc2)C1 (stereo not given) | 6.48
CN/C(=N\S(=O)(=O)c1ccc(Cl)cc1)C1=NN(c2ccc(Cl)cc2Cl)C(c2ccccc2)C1 (stereo not given) | 6.61
CN/C(=N\S(=O)(=O)c1ccc(C(F)(F)F)cc1)C1=NN(c2ccc(Cl)cc2Cl)C(c2ccccc2)C1 (stereo not given) | 6.75
CNC(=NS(=O)(=O)N1CCCCC1)C1=NN(c2ccc(Cl)cc2)C(c2ccccc2)C1 (stereo not given) | 5.96
CN/C(=N\S(=O)(=O)N1CCC(F)CC1)C1=NN(c2ccc(Cl)cc2)C(c2ccccc2)C1 (stereo not given) | < 6.00
CN/C(=N\S(=O)(=O)N1CCC(C(F)(F)F)CC1)C1=NN(c2ccc(Cl)cc2)C(c2ccccc2)C1 (stereo not given) | 6.22
CN=C(NS(=O)(=O)N1CCC(F)(F)CC1)C1=NN(c2ccc(Cl)cc2)C(c2ccccc2)C1 (stereo not given) | < 6.00
CN/C(=N\S(=O)(=O)N1CCC(F)(F)CC1)C1=NN(c2ccc(Cl)cc2)[C@@H](c2ccccc2)C1 | < 6.00

The compounds below were run against T1, Cannabinoid receptor 1 (assay: Antagonist activity at human cannabinoid CB1 receptor expressed in CHO cells assessed as inhibition of CP-55940-induced [3H]arachidonic acid release). Details: read-out: pA2 (converted).
Format: functional, cell-based

Structure (SMILES) | Kb [µM]
CN/C(=N\S(=O)(=O)N1CCC(F)(F)CC1)C1=NN(c2ccc(Cl)cc2)[C@H](c2ccccc2)C1 | > 0.2
CNC(=NS(=O)(=O)N1CCC(F)CC1)N1CC(c2ccccc2)C(c2ccc(Cl)cc2)=N1 (stereo not given) | 0.001
CN/C(=N\S(=O)(=O)c1ccc(F)cc1)C1=NN(c2ccc(Cl)cc2)C(c2ccccc2)C1 (stereo not given) | 0.01
CNC(=NS(=O)(=O)N1CCC(C(F)(F)F)CC1)C1=NN(c2ccc(Cl)cc2)[C@H](c2ccccc2)C1 | 0.00631
CNC(=NS(=O)(=O)N1CCC(C(F)(F)F)CC1)N1C[C@H](c2ccccc2)C(c2ccc(Cl)cc2)=N1 | 0.000251
CNC(=NS(=O)(=O)N1CCC(C(F)(F)F)CC1)N1C[C@@H](c2ccccc2)C(c2ccc(Cl)cc2)=N1 | 0.0501
CNC(=NS(=O)(=O)N1CCC(F)(F)CC1)N1C[C@H](c2ccccc2)C(c2ccc(Cl)cc2)=N1 | 0.001
CNC(=NS(=O)(=O)N1CCC(F)(F)CC1)N1C[C@@H](c2ccccc2)C(c2ccc(Cl)cc2)=N1 | 0.398
CN/C(=N\S(=O)(=O)N1CCC(C(F)(F)F)CC1)N1CC(c2ccccc2)C(c2ccc(Cl)cc2)=N1 (stereo not given) | 0.000398
CN/C(=N\S(=O)(=O)c1ccc(Cl)cc1)C1=NN(c2ccc(Cl)cc2)C(c2ccccc2)C1 (stereo not given) | 0.00398
CN/C(=N\S(=O)(=O)c1cccc(Cl)c1)C1=NN(c2ccc(Cl)cc2Cl)C(c2ccccc2)C1 (stereo not given) | 0.00501
CN/C(=N\S(=O)(=O)c1ccc(Cl)cc1)C1=NN(c2ccc(Cl)cc2Cl)C(c2ccccc2)C1 (stereo not given) | 0.001
CN/C(=N\S(=O)(=O)c1ccc(C(F)(F)F)cc1)C1=NN(c2ccc(Cl)cc2Cl)C(c2ccccc2)C1 (stereo not given) | 0.00251
CNC(=NS(=O)(=O)N1CCCCC1)C1=NN(c2ccc(Cl)cc2)C(c2ccccc2)C1 (stereo not given) | 0.0126
CN/C(=N\S(=O)(=O)N1CCC(F)CC1)C1=NN(c2ccc(Cl)cc2)C(c2ccccc2)C1 (stereo not given) | 0.00398
CN/C(=N\S(=O)(=O)N1CCC(C(F)(F)F)CC1)C1=NN(c2ccc(Cl)cc2)C(c2ccccc2)C1 (stereo not given) | 0.000398
CN=C(NS(=O)(=O)N1CCC(F)(F)CC1)C1=NN(c2ccc(Cl)cc2)C(c2ccccc2)C1 (stereo not given) | 0.000794
CN/C(=N\S(=O)(=O)N1CCC(F)(F)CC1)C1=NN(c2ccc(Cl)cc2)[C@@H](c2ccccc2)C1 | 0.00158

These compounds were tested on Rattus norvegicus (assay: Inhibition of CP-55940-induced hypotension in po dosed rat). Details: read-out: ID50 (the source's name).
Format: functional

Structure (SMILES) | ED50 [mg/kg]
CN/C(=N\S(=O)(=O)N1CCC(F)(F)CC1)C1=NN(c2ccc(Cl)cc2)[C@H](c2ccccc2)C1 | > 30
CNC(=NS(=O)(=O)N1CCC(F)CC1)N1CC(c2ccccc2)C(c2ccc(Cl)cc2)=N1 (stereo not given) | > 30
CN/C(=N\S(=O)(=O)c1ccc(F)cc1)C1=NN(c2ccc(Cl)cc2)C(c2ccccc2)C1 (stereo not given) | 30
CNC(=NS(=O)(=O)N1CCC(C(F)(F)F)CC1)N1C[C@H](c2ccccc2)C(c2ccc(Cl)cc2)=N1 | 2
CNC(=NS(=O)(=O)N1CCC(C(F)(F)F)CC1)N1C[C@@H](c2ccccc2)C(c2ccc(Cl)cc2)=N1 | > 30
CNC(=NS(=O)(=O)N1CCC(F)(F)CC1)N1C[C@H](c2ccccc2)C(c2ccc(Cl)cc2)=N1 | 6
CNC(=NS(=O)(=O)N1CCC(F)(F)CC1)N1C[C@@H](c2ccccc2)C(c2ccc(Cl)cc2)=N1 | > 30
CN/C(=N\S(=O)(=O)N1CCCCC1)N1C[C@H](c2ccccc2)C(c2ccc(Cl)cc2)=N1 | 8
CN/C(=N\S(=O)(=O)c1ccc(Cl)cc1)C1=NN(c2ccc(Cl)cc2)C(c2ccccc2)C1 (stereo not given) | > 30
CN/C(=N\S(=O)(=O)c1cccc(Cl)c1)C1=NN(c2ccc(Cl)cc2Cl)C(c2ccccc2)C1 (stereo not given) | > 30
CN/C(=N\S(=O)(=O)c1ccc(Cl)cc1)C1=NN(c2ccc(Cl)cc2Cl)C(c2ccccc2)C1 (stereo not given) | > 30
CN/C(=N\S(=O)(=O)c1ccc(C(F)(F)F)cc1)C1=NN(c2ccc(Cl)cc2Cl)C(c2ccccc2)C1 (stereo not given) | > 30
CNC(=NS(=O)(=O)N1CCCCC1)C1=NN(c2ccc(Cl)cc2)C(c2ccccc2)C1 (stereo not given) | > 30
CN/C(=N\S(=O)(=O)N1CCC(F)CC1)C1=NN(c2ccc(Cl)cc2)C(c2ccccc2)C1 (stereo not given) | > 30
CN=C(NS(=O)(=O)N1CCC(F)(F)CC1)C1=NN(c2ccc(Cl)cc2)C(c2ccccc2)C1 (stereo not given) | 9
CN/C(=N\S(=O)(=O)N1CCC(F)(F)CC1)C1=NN(c2ccc(Cl)cc2)[C@@H](c2ccccc2)C1 | 5
CN/C(=N\S(=O)(=O)N1CCC(F)(F)CC1)N1CC(c2ccccc2)C(c2ccc(Cl)cc2)=N1 (stereo not given) | 23
CN/C(=N\S(=O)(=O)c1ccc(Cl)cc1)N1C[C@H](c2ccccc2)C(c2ccc(Cl)cc2)=N1 [IBIPINABANT] | 5.5
CN/C(=N\S(=O)(=O)c1ccc(Cl)cc1)N1CC(c2ccccc2)C(c2ccc(Cl)cc2)=N1 (stereo not drawn) [RAC-IBIPINABANT] | 15
